Key:
[1] = Ratio of drug uptake in pons to cerebellum in anesthetized cynomolgus monkey after 95 mins postinjection; type: ADME, organism-based, Macaca fascicularis; conditions: in vivo
[2] = Ratio of drug uptake in pons to cerebellum in anesthetized cynomolgus monkey after 125 mins postinjection; type: ADME, organism-based, Macaca fascicularis; conditions: in vivo
[3] = Ratio of drug uptake in pons to cerebellum in anesthetized cynomolgus monkey after 225 mins postinjection; type: ADME, organism-based, Macaca fascicularis; conditions: in vivo, 3.75 h
[4] = Ratio of drug uptake in medulla to cerebellum in anesthetized cynomolgus monkey after 9.5 mins postinjection; type: ADME, organism-based, Macaca fascicularis; conditions: in vivo
[5] = Ratio of drug uptake in medulla to cerebellum in anesthetized cynomolgus monkey after 12.5 mins postinjection; type: ADME, organism-based, Macaca fascicularis; conditions: in vivo
[6] = Drug uptake in anesthetized cynomolgus monkey brain occipital lobe after 6.5 mins postinjection; type: ADME, organism-based, Macaca fascicularis; set-up: unit not given here; conditions: in vivo
[7] = Drug uptake in anesthetized cynomolgus monkey brain occipital lobe after 9.5 mins postinjection; type: ADME, organism-based, Macaca fascicularis; conditions: in vivo
[8] = Drug uptake in anesthetized cynomolgus monkey brain occipital lobe after 125 mins postinjection; type: ADME, organism-based, Macaca fascicularis; conditions: in vivo
[9] = Drug uptake in anesthetized cynomolgus monkey brain frontal lobe after 1.5 mins postinjection; type: ADME, organism-based, Macaca fascicularis; conditions: in vivo, 0.025 h
[10] = Drug uptake in anesthetized cynomolgus monkey brain frontal lobe after 115 mins postinjection; type: ADME, organism-based, Macaca fascicularis; conditions: in vivo
[11] = Drug uptake in anesthetized cynomolgus monkey brain frontal lobe after 225 mins postinjection; type: ADME, organism-based, Macaca fascicularis; conditions: in vivo, 3.75 h
Putamen [12] = test: Drug uptake in anesthetized cynomolgus monkey brain putamen after 145 mins postinjection; type: ADME, organism-based, Macaca fascicularis; conditions: in vivo
Putamen [13] = test: Drug uptake in anesthetized cynomolgus monkey brain putamen after 165 mins postinjection; type: ADME, organism-based, Macaca fascicularis; conditions: in vivo, 2.75 h
Putamen [14] = test: Drug uptake in anesthetized cynomolgus monkey brain putamen after 215 mins postinjection; type: ADME, organism-based, Macaca fascicularis; conditions: in vivo
[15] = Ratio of drug uptake in frontal lobe to cerebellum in anesthetized cynomolgus monkey after 3.5 mins postinjection; type: ADME, organism-based, Macaca fascicularis; conditions: in vivo
[16] = Ratio of drug uptake in frontal lobe to cerebellum in anesthetized cynomolgus monkey after 95 mins postinjection; type: ADME, organism-based, Macaca fascicularis; conditions: in vivo
Midbrain [17] = test: Drug uptake in anesthetized cynomolgus monkey brain midbrain after 175 mins postinjection; type: ADME, organism-based, Macaca fascicularis; conditions: in vivo
Midbrain [18] = test: Drug uptake in anesthetized cynomolgus monkey brain midbrain after 225 mins postinjection; type: ADME, organism-based, Macaca fascicularis; conditions: in vivo, 3.75 h
Pons [19] = test: Drug uptake in anesthetized cynomolgus monkey brain pons after 0.5 mins postinjection; type: ADME, organism-based, Macaca fascicularis; conditions: in vivo
Pons [20] = test: Drug uptake in anesthetized cynomolgus monkey brain pons after 12.5 mins postinjection; type: ADME, organism-based, Macaca fascicularis; conditions: in vivo
Pons [21] = test: Drug uptake in anesthetized cynomolgus monkey brain pons after 18.5 mins postinjection; type: ADME, organism-based, Macaca fascicularis; conditions: in vivo
Pons [22] = test: Drug uptake in anesthetized cynomolgus monkey brain pons after 55 mins postinjection; type: ADME, organism-based, Macaca fascicularis; conditions: in vivo
[23] = Ratio of drug uptake in caudate to cerebellum in anesthetized cynomolgus monkey after 12.5 mins postinjection; type: ADME, organism-based, Macaca fascicularis; conditions: in vivo
[24] = Ratio of drug uptake in caudate to cerebellum in anesthetized cynomolgus monkey after 65 mins postinjection; type: ADME, organism-based, Macaca fascicularis; conditions: in vivo
[25] = Ratio of drug uptake in caudate to cerebellum in anesthetized cynomolgus monkey after 135 mins postinjection; type: ADME, organism-based, Macaca fascicularis; conditions: in vivo, 2.25 h
Pons [26] = test: Drug uptake in anesthetized cynomolgus monkey brain pons after 125 mins postinjection; type: ADME, organism-based, Macaca fascicularis; conditions: in vivo
Pons [27] = test: Drug uptake in anesthetized cynomolgus monkey brain pons after 145 mins postinjection; type: ADME, organism-based, Macaca fascicularis; conditions: in vivo
Pons [28] = test: Drug uptake in anesthetized cynomolgus monkey brain pons after 215 mins postinjection; type: ADME, organism-based, Macaca fascicularis; conditions: in vivo
Medulla [29] = test: Drug uptake in anesthetized cynomolgus monkey brain medulla after 15.5 mins postinjection; type: ADME, organism-based, Macaca fascicularis; conditions: in vivo
Medulla [30] = test: Drug uptake in anesthetized cynomolgus monkey brain medulla after 18.5 mins postinjection; type: ADME, organism-based, Macaca fascicularis; conditions: in vivo
Medulla [31] = test: Drug uptake in anesthetized cynomolgus monkey brain medulla after 95 mins postinjection; type: ADME, organism-based, Macaca fascicularis; conditions: in vivo
[32] = Ratio of drug uptake in putamen to cerebellum in anesthetized cynomolgus monkey after 0.5 mins postinjection; type: ADME, organism-based, Macaca fascicularis; conditions: in vivo
[33] = Ratio of drug uptake in putamen to cerebellum in anesthetized cynomolgus monkey after 6.5 mins postinjection; type: ADME, organism-based, Macaca fascicularis; conditions: in vivo
[34] = Ratio of drug uptake in putamen to cerebellum in anesthetized cynomolgus monkey after 9.5 mins postinjection; type: ADME, organism-based, Macaca fascicularis; conditions: in vivo
Medulla [35] = test: Drug uptake in anesthetized cynomolgus monkey brain medulla after 135 mins postinjection; type: ADME, organism-based, Macaca fascicularis; conditions: in vivo, 2.25 h
Medulla [36] = test: Drug uptake in anesthetized cynomolgus monkey brain medulla after 145 mins postinjection; type: ADME, organism-based, Macaca fascicularis; conditions: in vivo
[37] = Octanol-water partition coefficient, log P at pH 7.4 by shake-flask method; type: physicochemical
Medulla [38] = test: Drug uptake in anesthetized cynomolgus monkey brain medulla after 215 mins postinjection; type: ADME, organism-based, Macaca fascicularis; conditions: in vivo
[39] = Drug uptake in anesthetized cynomolgus monkey brain cerebellum after 0.5 mins postinjection; type: ADME, organism-based, Macaca fascicularis; conditions: in vivo
[40] = Drug uptake in anesthetized cynomolgus monkey brain cerebellum after 2.5 mins postinjection; type: ADME, organism-based, Macaca fascicularis; conditions: in vivo
[41] = Drug uptake in anesthetized cynomolgus monkey brain cerebellum after 15.5 mins postinjection; type: ADME, organism-based, Macaca fascicularis; conditions: in vivo
[42] = Drug uptake in anesthetized cynomolgus monkey brain cerebellum after 115 mins postinjection; type: ADME, organism-based, Macaca fascicularis; conditions: in vivo
[43] = Drug uptake in anesthetized cynomolgus monkey brain cerebellum after 215 mins postinjection; type: ADME, organism-based, Macaca fascicularis; conditions: in vivo
[44] = Ratio of drug uptake in putamen to cerebellum in anesthetized cynomolgus monkey after 215 mins postinjection; type: ADME, organism-based, Macaca fascicularis; conditions: in vivo
[45] = Ratio of drug uptake in thalamus to cerebellum in anesthetized cynomolgus monkey after 95 mins postinjection; type: ADME, organism-based, Macaca fascicularis; conditions: in vivo
Caudate [46] = test: Drug uptake in anesthetized cynomolgus monkey brain caudate after 75 mins postinjection; type: ADME, organism-based, Macaca fascicularis, Caudate nucleus; conditions: in vivo, 1.25 h
Caudate [47] = test: Drug uptake in anesthetized cynomolgus monkey brain caudate after 105 mins postinjection; type: ADME, organism-based, Macaca fascicularis, Caudate nucleus; conditions: in vivo, 1.75 h
Caudate [48] = test: Drug uptake in anesthetized cynomolgus monkey brain caudate after 215 mins postinjection; type: ADME, organism-based, Macaca fascicularis, Caudate nucleus; conditions: in vivo
Thalamus = test: Drug uptake in anesthetized cynomolgus monkey brain thalamus after 22.5 mins postinjection; type: ADME, organism-based, Macaca fascicularis; set-up: unit not given here; conditions: in vivo, 0.375 h
Putamen [49] = test: Drug uptake in anesthetized cynomolgus monkey brain putamen after 18.5 mins postinjection; type: ADME, organism-based, Macaca fascicularis; set-up: unit not given here; conditions: in vivo
Putamen [50] = test: Drug uptake in anesthetized cynomolgus monkey brain putamen after 55 mins postinjection; type: ADME, organism-based, Macaca fascicularis; set-up: unit not given here; conditions: in vivo
Midbrain [51] = test: Drug uptake in anesthetized cynomolgus monkey brain midbrain after 4.5 mins postinjection; type: ADME, organism-based, Macaca fascicularis; set-up: unit not given here; conditions: in vivo, 0.075 h
Midbrain [52] = test: Drug uptake in anesthetized cynomolgus monkey brain midbrain after 18.5 mins postinjection; type: ADME, organism-based, Macaca fascicularis; set-up: unit not given here; conditions: in vivo
Midbrain [53] = test: Drug uptake in anesthetized cynomolgus monkey brain midbrain after 75 mins postinjection; type: ADME, organism-based, Macaca fascicularis; set-up: unit not given here; conditions: in vivo, 1.25 h
[54] = Ratio of drug uptake in midbrain to cerebellum in anesthetized cynomolgus monkey after 9.5 mins postinjection; type: ADME, organism-based, Macaca fascicularis; conditions: in vivo
[55] = Ratio of drug uptake in midbrain to cerebellum in anesthetized cynomolgus monkey after 18.5 mins postinjection; type: ADME, organism-based, Macaca fascicularis; conditions: in vivo
[56] = Ratio of drug uptake in midbrain to cerebellum in anesthetized cynomolgus monkey after 27.5 mins postinjection; type: ADME, organism-based, Macaca fascicularis; conditions: in vivo
[57] = Ratio of drug uptake in midbrain to cerebellum in anesthetized cynomolgus monkey after 135 mins postinjection; type: ADME, organism-based, Macaca fascicularis; conditions: in vivo, 2.25 h

O=C(OCCC[18F])C1C2CCC(CC1c1cccc(/C=C\Br)c1)N2 (stereo not given)
Ratio [1]: 1.2 | Ratio [2]: 1.4 | Ratio [3]: 1.6 | Ratio [4]: 1 | Ratio [5]: 1 | Drug uptake [6]: 3.31 | Drug uptake [7]: 3.77 | Drug uptake [8]: 3.64 | Drug uptake [9]: 0.25 | Drug uptake [10]: 3.2 | Drug uptake [11]: 1.97 | Drug uptake (Putamen [12]): 4.58 | Drug uptake (Putamen [13]): 4.31 | Drug uptake (Putamen [14]): 3.51 | Ratio [15]: 0.5 | Ratio [16]: 0.9 | Drug uptake (Midbrain [17]): 4.91 | Drug uptake (Midbrain [18]): 4.29 | Drug uptake (Pons [19]): 0.01 | Drug uptake (Pons [20]): 4.51 | Drug uptake (Pons [21]): 4.55 | Drug uptake (Pons [22]): 4.72 | Ratio [23]: 0.7 | Ratio [24]: 1.2 | Ratio [25]: 1.5 | Drug uptake (Pons [26]): 4.3 | Drug uptake (Pons [27]): 4.35 | Drug uptake (Pons [28]): 3.17 | Drug uptake (Medulla [29]): 5.77 | Drug uptake (Medulla [30]): 5.87 | Drug uptake (Medulla [31]): 5.59 | Ratio [32]: 0.8 | Ratio [33]: 0.9 | Ratio [34]: 0.9 | Drug uptake (Medulla [35]): 4.99 | Drug uptake (Medulla [36]): 4.91 | logD [37]: 1.87 | Drug uptake (Medulla [38]): 3.67 | Drug uptake [39]: 0.01 | Drug uptake [40]: 1.41 | Drug uptake [41]: 5.62 | Drug uptake [42]: 3.29 | Drug uptake [43]: 2.1 | Ratio [44]: 1.7 | Ratio [45]: 1.4 | Drug uptake (Caudate [46]): 5.17 | Drug uptake (Caudate [47]): 4.9 | Drug uptake (Caudate [48]): 3.62 | Drug uptake (Thalamus): 5.02 | Drug uptake (Putamen [49]): 5.83 | Drug uptake (Putamen [50]): 5.97 | Drug uptake (Midbrain [51]): 3.08 | Drug uptake (Midbrain [52]): 5.49 | Drug uptake (Midbrain [53]): 6.07 | Ratio [54]: 0.9 | Ratio [55]: 0.9 | Ratio [56]: 1.1 | Ratio [57]: 1.9

O=C(OCC[18F])C1C2CCC(CC1c1cccc(/C=C\I)c1)N2 (stereo not given)
Ratio [1]: 1.2 | Ratio [3]: 1.6 | Ratio [4]: 0.9 | Ratio [5]: 0.9 | Drug uptake [6]: 2 | Drug uptake [8]: 1.97 | Drug uptake [11]: 1.45 | Drug uptake (Putamen [12]): 3.27 | Drug uptake (Putamen [13]): 3.02 | Drug uptake (Putamen [14]): 2.53 | Ratio [15]: 0.6 | Ratio [16]: 1 | Drug uptake (Midbrain [17]): 3.46 | Drug uptake (Midbrain [18]): 2.99 | Drug uptake (Pons [19]): 0 | Drug uptake (Pons [20]): 2.58 | Drug uptake (Pons [21]): 2.91 | Drug uptake (Pons [22]): 3.27 | Ratio [24]: 1.1 | Drug uptake (Pons [26]): 2.76 | Drug uptake (Pons [27]): 2.57 | Drug uptake (Pons [28]): 2.08 | Drug uptake (Medulla [29]): 3.53 | Drug uptake (Medulla [30]): 3.61 | Drug uptake (Medulla [31]): 3.56 | Ratio [34]: 0.9 | Drug uptake (Medulla [35]): 3.24 | Drug uptake (Medulla [36]): 3.04 | logD [37]: 1.69 | Drug uptake (Medulla [38]): 2.43 | Drug uptake [39]: 0 | Drug uptake [43]: 1.4 | Ratio [44]: 1.8 | Ratio [45]: 1.5 | Drug uptake (Caudate [46]): 3.62 | Drug uptake (Caudate [47]): 3.33 | Drug uptake (Caudate [48]): 2.09 | Drug uptake (Thalamus): 3.88 | Drug uptake (Putamen [49]): 3.78 | Drug uptake (Putamen [50]): 4.37 | Drug uptake (Midbrain [51]): 1.87 | Drug uptake (Midbrain [52]): 4.37 | Drug uptake (Midbrain [53]): 4.76 | Ratio [54]: 1 | Ratio [55]: 1.1 | Ratio [56]: 1.1 | Ratio [57]: 2

— ChEMBL document CHEMBL1151757, “Synthesis, radiosynthesis, and biological evaluation of fluorine-18-labeled 2beta-carbo(fluoroalkoxy)-3beta-(3'-((Z)-2-haloethenyl)phenyl)nortropanes: candidate radioligands for in vivo imaging of the serotonin transporter with positron emission tomography” (J Med Chem, 2008)
